{"source": "patent US20100129915A1", "about": "“METHODS FOR INDUCING CARDIOMYOGENESIS” (priority 2006, published 2010)", "format_in_all_cases": "cell-based", "key": {"Murine ES cells [1]": {"test_system": "Murine ES cells", "assay": "Immunohistochemistry of day 12 EBs with anti-Islet1 or anti-Tropomyosin", "conditions": "for number of Isl1-positive cells in EBs: anti-Islet1 immunohistochemistry; for number of Tropomyosin-positive cells in EBs: anti-Tropomyosin immunohistochemistry", "method": "Immunohistochemistry and in situ hybridization. Whole or cryosectioned embryos and EBs were stained with the following antibodies: mouse anti-Islet1 (1:200) and anti-tropomyosin (1:100) (DSHB), goat anti-Wnt8a (15 μg/ml, R&D Systems), goat anti-β-catenin (1:50) and rat anti-cyclin D2 (1:100) (Santa Cruz Biotechnology), rabbit anti-phospho-Histone H3 (1:100, Upstate), and horseradish peroxidase-conjugated (with TSA plus Fluorescent Systems, PerkinElmer) secondary antibodies (The Jackson Laboratory). mRNA in situ hybridization was performed with designated antisense probes as described. Srivastava et al Science 270, 1995-9 (1995).\n(§1) ES cell culture and gene expression analysis. Murine ES cells were propagated undifferentiated in maintenance medium consisting of Glasgow MEM (Sigma G5154) supplemented with 10% fetal bovine serum (FBS, Hyclone SH30071.03), 1 mM β-mercaptoethanol (Sigma M7522), 2 mM L-glutamine (Gibco-BRL 25030-081), 1 mM sodium pyruvate (Gibco-BRL 11360-070), 0.1 mM minimum essential medium containing nonessential amino acids, and LIF-conditioned medium (1:1000). EBs were formed by culturing ES cells (6×10^5/well) for 3 days in ultra-low-attachment six-well plates (Costar 07200601) in differentiation medium (DM), which contained the same components as maintenance medium but had 20% FBS and no LIF. For early treatment, the medium was replaced with DM containing Wnt3a (150 ng/ml, R&D systems) or Dkk1 (500 ng/ml, R&D systems) at the start of day 4; on day 6, the medium was replaced with fresh DM. For late treatment, DM was replaced with Wnt3a- or Dkk1-containing DM at the start of day 7 and switched to fresh DM on day 9. Respective media were changed for early-, late-, and un-treated EBs every 3 days. EBs were monitored for beating from days 8-12. EBs were collected between days 3 and 12 at regular intervals. For gene expression analysis, total RNA was isolated, and real-time PCR was performed with the ABI Prism system (7900HT, Applied Biosystems). All samples were run in triplicate. Real-time PCR data were normalized and standardized with SDS2.2 software.\nFIGS. 4A-E. Canonical Wnt signaling regulates cardiac induction and differentiation in ES cells. a, Brachyury expression profiles, determined by quantitative real-time PCR (qPCR), of undifferentiated ES cells on day 0 and EBs harvested on days 3, 6, and 9 after early Wnt3a or Dkk-1 treatment compared to control. b, Beating EBs grown in suspension were counted from days 8-12. Percentage of beating EBs after early (days 4-6) or late (days 7-9) treatment with Wnt3a (left) or Dkk-1 (right). […] Fold change in expression of all indicated genes (y-axis) in EBs with respect to undifferentiated ES cells was assessed by qPCR. […]"}, "Murine ES cells [2]": {"test_system": "Murine ES cells", "assay": "Beating embryoid bodies (EBs) from ES cells grown in suspension", "conditions": "for number of beating EBs at EB12: early treatment EB4-6, Wnt3a 150 ng/ml or Dkk1 500 ng/ml, untreated 10%; for EBs beating by EB 12: late treatment EB 7-9, Wnt3a 150 ng/ml or Dkk1 500 ng/ml, control EBs 13%", "method": "as §1\n(§2) FIGS. 4A-E. Canonical Wnt signaling regulates cardiac induction and differentiation in ES cells. a, Brachyury expression profiles, determined by quantitative real-time PCR (qPCR), of undifferentiated ES cells on day 0 and EBs harvested on days 3, 6, and 9 after early Wnt3a or Dkk-1 treatment compared to control. b, Beating EBs grown in suspension were counted from days 8-12. Percentage of beating EBs after early (days 4-6) or late (days 7-9) treatment with Wnt3a (left) or Dkk-1 (right). Asterisks indicate significant difference in beating percentage of treatment groups versus untreated EBs (P<0.01). c, d Immunohistochemistry of day 12 EBs with anti-Islet1 (c) or anti-Tropomyosin (d). e, Cardiac gene expression after early (days 4-6, top) or late (days 7-9, bottom) treatment with Wnt3a or Dkk-1. EBs were harvested on days 3, 6 and 9 (early treatment) or days 6, 9, and 12 (late treatment). Fold change in expression of all indicated genes (y-axis) in EBs with respect to undifferentiated ES cells was assessed by qPCR. NS, not significant. *P<0.01."}, "Murine ES cells [3]": {"test_system": "Murine ES cells", "assay": "Mesoderm and cardiac gene expression in EBs by quantitative real-time PCR", "conditions": "qPCR; for Bry (Brachyury) expression: early treatment after EB3, compared to control; for expression of early cardiac gene Nkx2.5 / expression of early cardiac gene Tbx5: exposure from EB4-6 (early treatment); for expression of early and late cardiac markers (cardiac gene expression): late treatment EB 7-9", "method": "as §1, §2"}, "[4]": {"test_system": "human embryonic stem (ES) cells (H9)", "assay": "Beating of differentiating human ES cells treated with Wnt-3a", "method": "Differentiating human embryonic stem (ES) cells (H9) were treated with Wnt-3a. […] Thus, canonical Wnt promotes human ES cells to differentiate into cardiomyocytes."}}}
{"substance": "Dkk1", "values": [{"measurement": "number of Isl1-positive cells in EBs", "setting": "Murine ES cells [1]", "result": "decreased"}, {"measurement": "number of Tropomyosin-positive cells in EBs", "setting": "Murine ES cells [1]", "result": "decreased"}, {"measurement": "number of beating EBs at EB12", "setting": "Murine ES cells [2]", "result": "complete absence of beating EBs"}, {"measurement": "EBs beating by EB 12", "setting": "Murine ES cells [2]", "result": "Approximately 10%"}, {"measurement": "Bry (Brachyury) expression", "setting": "Murine ES cells [3]", "result": "unaltered"}, {"measurement": "expression of early cardiac gene Nkx2.5", "setting": "Murine ES cells [3]", "result": "downregulated"}, {"measurement": "expression of early cardiac gene Tbx5", "setting": "Murine ES cells [3]", "result": "downregulated"}, {"measurement": "expression of early and late cardiac markers (cardiac gene expression)", "setting": "Murine ES cells [3]", "result": "not changed"}]}
{"substance": "Wnt3a", "values": [{"measurement": "number of Isl1-positive cells in EBs", "setting": "Murine ES cells [1]", "result": "increased"}, {"measurement": "number of Tropomyosin-positive cells in EBs", "setting": "Murine ES cells [1]", "result": "increased"}, {"measurement": "number of beating EBs at EB12", "setting": "Murine ES cells [2]", "result": "over 50%"}, {"measurement": "EBs beating by EB 12", "setting": "Murine ES cells [2]", "result": "~50", "unit": "%"}, {"measurement": "Bry (Brachyury) expression", "setting": "Murine ES cells [3]", "result": "unaltered"}, {"measurement": "expression of early cardiac gene Nkx2.5", "setting": "Murine ES cells [3]", "result": "upregulated"}, {"measurement": "expression of early cardiac gene Tbx5", "setting": "Murine ES cells [3]", "result": "upregulated"}, {"measurement": "expression of early and late cardiac markers (cardiac gene expression)", "setting": "Murine ES cells [3]", "result": "upregulated"}, {"measurement": "number of beating hES cells", "setting": "[4]", "result": "significantly increased"}]}
